Measured values from patent publication US20100119613A1, “PROCESS TO ACTIVATE EXTRACTS DERIVED FROM LIVING ORGANISMS USING LONG WAVE UV IRRADIATION AND COMPOSITIONS COMPRISING SAID ACTIVATED EXTRACT” (Medizinische Universitat Wien, priority 2007, published 2010).
Each block holds one compound with its values, some of them ahead of it.

Tests used:
Heme Oxygenase 1 (HO-1) = assay: HO-1 mRNA expression in dermal fibroblasts (qPCR); assay type: cell-based, human; settings: for HO-1 mRNA expression relative to non-treated control cells: dermal fibroblasts; for Effect on OxPAPC-mediated HO-1 induction: fibroblasts incubated with the ROS scavenger prior to exposure to OxPAPC
Method: Neonatal Human Epidermal Keratinocytes (KC) derived from foreskin are obtained from Clonetics (San Diego, Calif.). Keratinocytes are cultured in keratinocyte growth medium (KGM) up to the fifth passage. Human neonatal skin fibroblasts (FB) are obtained from Cascade Biologics (Portland, Oreg.) and grown in Dulbecco's modified Eagle's medium, Gibco (Gaithersburg, Md.) supplemented with 10% fetal calf serum (FCS) and penicillin/streptomycin (1000 U per ml, Gibco) to sub-confluence.
RNA is isolated using Trizol reagent (Invitrogen). Nine hundred ng of total RNA are reverse-transcribed with murine leukemia virus reverse transcriptase (MuLV, Applied Biosystems, Foster City, Calif.) and oligo(dT) primers. The following forward (F) and reverse (R) primers are used: HO-1: F, 5′-[…]-3′; R, 5′-[…]-3′; B2M; F 5′-[…]-3′R,5′-[…]-3′ qPCR is performed using LightCycler technology and the Fast Start SYBR Green I kit (both Roche Applied Science, Basel, Switzerland). In all assays, cDNA is amplified using a standardized program (10-min denaturing step; 55 cycles of 5 s at 95° C., […], and 15 s at 72° C.; melting point analysis in 0.1° C. steps). Quantification of target gene expression is performed using a mathematical model by Pfaffl (Pfaffl, Nucleic Acids Res. 29, e45 (2001)). The expression of the target molecule is normalized to the expression of β-2 microglobulin.
PAPC is oxidized by exposure of the dry lipid to air for 72 h to generate OxPAPC. PAPC dried to a thin film on a glass support is irradiated with UVA-1 with 160 J/cm^2 to generate UV-PAPC. For treatment with singlet oxygen all lipids are vortexed in PBS containing 20 μM Rose Bengal and irradiated with 10 J/cm^2 UVA-1 (FIGS. 5 A,B) or under a commercial 35 W halogen lamp at a distance of 30 cm for 30 minutes (FIG. 5 C). The extent of oxidation was monitored by ESI-MS as described previously (Watson, J. Biol. Chem. 272, 13597-13607 (1997)). The UVA-1 irradiated lipids are solubilized, emulsified or suspended in the respective growth medium before skin cells or the skin equivalent are treated.
Human neonatal skin fibroblasts (FB) are obtained from Cascade Biologics (Portland, Oreg.) and grown in Dulbecco's modified Eagle's medium, Gibco (Gaithersburg, Md.) supplemented with 10% fetal calf serum (FCS) and penicillin/streptomycin (1000 U per ml, Gibco) to sub-confluence.
Fibroblasts are treated with autoxidized PAPC, UVA-1 treated PAPC or UVA-1 untreated PAPC (100 μg/ml) as described in Example 1. Total RNA is isolated after 4 hours from treated cells and untreated control cells.
Relative expression of HO-1 mRNA in dermal fibroblasts is determined 4 h after stimulation with lipids or extracts as specified above using quantitative real-time PCR (qPCR). Normalization is standardized by comparison to the expression of the housekeeping gene beta-2-microglobulin (B2M) as described in Example 1.
Fibroblasts are treated with lipids or extract as described in Example 1 relating to treatment with oxPAPC. Total RNA is isolated 4 h after stimulation with 100 μg/ml of lipids or extract.

HO-1 = settings: literature (Ishikawa 1997); cited from earlier work
[1] = lipid not irradiated with UVA-1 in the presence of RB (FIG. 5B)
[2] = TLC fractions of OxPAPC and synthetic phospholipids (FIG. 2)

Compound: CCCCCCCC/C=C\CCCCCCCC(=O)O[C@H](COC(=O)CCCCCCCCCCCCCCC)COP(=O)([O-])OCC[N+](C)(C)C [POPC, 1-palmitoyl-2-oleoyl-sn-3-glycerophosphorylcholine]
HO-1 mRNA expression relative to non-treated control cells (Heme Oxygenase 1 (HO-1); [1]): did not induce Heme Oxygenase 1 (HO-1) mRNA expression

Compound: 1-palmitoyl-2-(epoxyisoprostane E2)-sn-glycero-3-phosphorylcholine [PEIPC]
HO-1 expression (HO-1): strong inducer of HO-1 expression

Effect on OxPAPC-mediated HO-1 induction (Heme Oxygenase 1 (HO-1)): did not significantly reduce
Compound: vitamin E

Compound: CCCCC/C=C\C/C=C\CCCCCCCC(=O)O[C@H](COC(=O)CCCCCCCCCCCCCCC)COP(=O)([O-])OCC[N+](C)(C)C [PLPC, 1-palmitoyl-2-linoleyl-sn-3-glycerophosphorylcholine]
HO-1 mRNA expression relative to non-treated control cells (Heme Oxygenase 1 (HO-1); [1]): did not induce Heme Oxygenase 1 (HO-1) mRNA expression

Compound: CCCCCCCCCCCCCCCC(=O)OC[C@H](COP(=O)([O-])OCC[N+](C)(C)C)OC(=O)CCCC(=O)O [PGPC, 1-palmitoyl-2-glutaroyl-sn-glycero-3-phosphorylcholine]
HO-1 mRNA expression relative to non-treated control cells (Heme Oxygenase 1 (HO-1); [2]): failed to induce HO-1 expression

Effect on OxPAPC-mediated HO-1 induction (Heme Oxygenase 1 (HO-1)): did not significantly reduce
Compound: CC1=C(/C=C/C(C)=C/C=C/C(C)=C/C=C/C=C(C)/C=C/C=C(C)/C=C/C2=C(C)CCCC2(C)C)C(C)(C)CCC1 [β-carotene]

Effect on OxPAPC-mediated HO-1 induction (Heme Oxygenase 1 (HO-1)): did not significantly reduce
Compound: O=C1O[C@H]([C@@H](O)CO)C(O)=C1O [vitamin C]

Compound: c1ccc(P(c2ccccc2)c2ccccc2)cc1 [TPP, triphenylphosphine]
Effect on capacity of OxPAPC to induce HO-1 expression (Heme Oxygenase 1 (HO-1); OxPAPC treated with triphenylphosphine (not shown)): only slightly reduced

Compound: CCCCCCCCCCCCCC(=O)OC[C@H](COP(=O)([O-])OCC[N+](C)(C)C)OC(=O)CCCCCCCCCCCCC [DMPC, di-myristoyl-phosphorylcholine]
HO-1 mRNA expression relative to non-treated control cells (Heme Oxygenase 1 (HO-1); [2]): failed to induce HO-1 expression

Compound: CCCCCCCCCCCCCCCC(=O)OC[C@@H](O)COP(=O)([O-])OCC[N+](C)(C)C [LysoPC, 1-palmitoyl-2-lyso-sn-glycero-3-phosphorylcholine]
HO-1 mRNA expression relative to non-treated control cells (Heme Oxygenase 1 (HO-1); [2]): failed to induce HO-1 expression

Compound: CCCCCCCCCCCCCCCC(=O)OC[C@H](COP(=O)(O)OCC[N+](C)(C)C)OC(=O)CCCC=O [POVPC, 1-palmitoyl-2-(5-oxovaleroyl)-sn-glycero-3-phosphorylcholine]
HO-1 mRNA expression relative to non-treated control cells (Heme Oxygenase 1 (HO-1); [2]): failed to induce HO-1 expression
